In PubChem BioAssay (NCI):
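Following 48 hours of exposure in 96-well plates, responses at five concentrations were used to interpolate endpoints linearly. The concentration for full growth arrest is given as TGI.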

How the values were obtained:
Assay in all cases: NCI anticancer screen, dose series, 48 h
786-0 renal = test system: 786-0 renal
A498 renal = test system: A498 renal
A549 NSCLC = test system: A549 NSCLC
ACHN renal = test system: ACHN renal
CAKI-1 renal = test system: CAKI-1 renal
COLO 205 colon = test system: COLO 205 colon
DU-145 prostate = test system: DU-145 prostate
EKVX NSCLC = test system: EKVX NSCLC
HCC-2998 colon = test system: HCC-2998 colon
HCT-116 colon = test system: HCT-116 colon
HCT-15 colon = test system: HCT-15 colon
HL-60(TB) leukemia = test system: HL-60(TB) leukemia
HOP-62 NSCLC = test system: HOP-62 NSCLC
HOP-92 NSCLC = test system: HOP-92 NSCLC
HS 578T breast = test system: HS 578T breast
HT29 colon = test system: HT29 colon
IGROV1 ovarian = test system: IGROV1 ovarian
K-562 leukemia = test system: K-562 leukemia
LOX IMVI melanoma = test system: LOX IMVI melanoma
M14 melanoma = test system: M14 melanoma
MALME-3M melanoma = test system: MALME-3M melanoma
MCF7 breast = test system: MCF7 breast
MDA-MB-231 breast = test system: MDA-MB-231 breast
MDA-MB-435 = test system: MDA-MB-435
MDA-N = test system: MDA-N
MOLT-4 leukemia = test system: MOLT-4 leukemia
NCI-H226 lung = test system: NCI-H226 lung
NCI-H23 lung = test system: NCI-H23 lung
NCI-H460 lung = test system: NCI-H460 lung
NCI/ADR-RES ovarian = test system: NCI/ADR-RES ovarian
OVCAR-3 ovarian = test system: OVCAR-3 ovarian
OVCAR-4 ovarian = test system: OVCAR-4 ovarian
OVCAR-5 ovarian = test system: OVCAR-5 ovarian
PC-3 prostate = test system: PC-3 prostate
RPMI-8226 leukemia = test system: RPMI-8226 leukemia
RXF 393 renal = test system: RXF 393 renal
SF-268 CNS = test system: SF-268 CNS
SF-295 CNS = test system: SF-295 CNS
SF-539 CNS = test system: SF-539 CNS
SK-MEL-2 melanoma = test system: SK-MEL-2 melanoma
SK-MEL-28 melanoma = test system: SK-MEL-28 melanoma
SK-MEL-5 melanoma = test system: SK-MEL-5 melanoma
SK-OV-3 ovarian = test system: SK-OV-3 ovarian
SN12C renal = test system: SN12C renal
SNB-19 CNS = test system: SNB-19 CNS
SR leukemia = test system: SR leukemia
T-47D breast = test system: T-47D breast
U251 CNS = test system: U251 CNS
UACC-257 melanoma = test system: UACC-257 melanoma
UACC-62 melanoma = test system: UACC-62 melanoma
UO-31 renal = test system: UO-31 renal
CCRF-CEM leukemia = test system: CCRF-CEM leukemia
KM12 colon = test system: KM12 colon
NCI-H522 lung = test system: NCI-H522 lung
OVCAR-8 ovarian = test system: OVCAR-8 ovarian
SNB-75 CNS = test system: SNB-75 CNS
SW-620 colon = test system: SW-620 colon
TK-10 renal = test system: TK-10 renal

Measured: TGI

C=C1CCCCCCCCCCC1S(=O)c1ccccc1 (stereo not drawn)
78.5 µM: MOLT-4 leukemia
96.4 µM: SK-OV-3 ovarian
55.4 µM: SN12C renal
57.3 µM: COLO 205 colon
75.3 µM: MDA-MB-231 breast
33.4 µM: IGROV1 ovarian
95.8 µM: SF-268 CNS
39.6 µM: UO-31 renal
54.4 µM: RPMI-8226 leukemia
37.2 µM: SF-539 CNS
53.2 µM: U251 CNS
59.3 µM: MDA-MB-435
82.6 µM: K-562 leukemia
65.5 µM: MCF7 breast
39.2 µM: HL-60(TB) leukemia
64.8 µM: SR leukemia
64.5 µM: RXF 393 renal
38.2 µM: 786-0 renal
91.3 µM: LOX IMVI melanoma
92.2 µM: M14 melanoma
not listed: CCRF-CEM leukemia | KM12 colon | NCI-H522 lung | OVCAR-8 ovarian | SNB-75 CNS | SW-620 colon | TK-10 renal
> 100 µM: all other assays above

OC1CN=C2c3ccccc3C(O)(c3ccc(Cl)cc3)N2C1 (stereo not drawn)
65.7 µM: TK-10 renal
30.4 µM: M14 melanoma
91.9 µM: SNB-75 CNS
37.8 µM: COLO 205 colon
35.5 µM: HCC-2998 colon
94.6 µM: HOP-92 NSCLC
not listed: A498 renal | HCT-15 colon | SF-295 CNS | SK-MEL-5 melanoma | UACC-257 melanoma
> 100 µM: all other assays above

O=C1NC(N2CCOCC2)=N/C1=C\c1ccccc1O
not listed: HCC-2998 colon | NCI-H460 lung | SR leukemia | UACC-62 melanoma
> 100 µM: all other assays above

C/C(=C\CCC1=CC(=O)OC1)CC[C@@H]1[C@H]2C(=O)CC(C)[C@@]3(C)CC[C@]1(C)[C@@]23C (stereo partly drawn)
not listed: A498 renal | ACHN renal | HCT-116 colon | HOP-92 NSCLC | HS 578T breast | MDA-MB-435 | NCI-H226 lung | NCI-H460 lung | NCI/ADR-RES ovarian | OVCAR-3 ovarian | OVCAR-4 ovarian | OVCAR-5 ovarian | SF-539 CNS | SK-MEL-2 melanoma | SNB-19 CNS | U251 CNS | UO-31 renal | NCI-H522 lung
> 10 µM: all other assays above
